Laboratory results as given in patent publication US4880783A, “Use of adenosine, hypoxanthine and ribose-containing solution for improved protection of the heart during surgery” (University of Virginia Alumnia Patents Foundation, priority 1988, dated 1989).

Assays:
[1] = system: myocardial ATP (isolated perfused rat heart); test: Myocardial ATP in Langendorff isolated perfused rat heart before, during and after 10 min ischemia; conditions: 100 μM; for ATP, 10' Ischemia / ATP, 15' RP / ATP, 30' RP / ATP, 60' RP / ATP, Equilibration: 37° C., N ≥ 5; for ATP, 15' RP: 15' reperfusion; for ATP, 30' RP: 30' reperfusion; for ATP, 60' RP: 60' reperfusion; for ATP, Equilibration: pre-ischemic equilibration; for nucleotide pools (ATP) during ischemia and/or post-ischemic reperfusion: in words, isolated rat heart
[2] = system: isolated perfused rat heart; test: Recovery of left ventricular developed pressure in isolated perfused rat heart after 10 min total ischemia; parameters: % of Control Developed Pressure, 15' RP / % of Control Developed Pressure, 30' RP / % of Control Developed Pressure, 60' RP: concentration or dose not given beside the values; conditions: for % of Control Developed Pressure, 15' RP: 15' reperfusion; for % of Control Developed Pressure, 15' RP / % of Control Developed Pressure, 30' RP / % of Control Developed Pressure, 60' RP: 37° C., N ≥ 5; for % of Control Developed Pressure, 30' RP: 30' reperfusion; for % of Control Developed Pressure, 60' RP: 60' reperfusion; for contractile function of the isolated perfused rat heart: in words, after 10 minutes of total ischemia
Procedure: This hypothesis was also tested using the aforementioned isolated rat heart model. The effects of adenosine and hypoxanthine on the recovery of cardiac contractile function was assessed by the determination of left ventricular developed pressure during the post-ischemic reperfusion phase with the use of an intra-ventricular saline filled balloon.

Row | Compound | ATP, 10' Ischemia [1] | ATP, 15' RP [1] | ATP, 30' RP [1] | ATP, 60' RP [1] | ATP, Equilibration [1] | nucleotide pools (ATP) during ischemia and/or post-ischemic reperfusion [1] | % of Control Developed Pressure, 15' RP [2] | % of Control Developed Pressure, 30' RP [2] | % of Control Developed Pressure, 60' RP [2] | contractile function of the isolated perfused rat heart [2]
1 | O=c1[nH]cnc2nc[nH]c12 [Hypoxanthine, hypoxanthine] | 1.4 ± .2 μmoles/g wet weight | 2.7 ± .2 μmoles/g wet weight | 2.7 ± .1 μmoles/g wet weight | 2.3 ± .1 μmoles/g wet weight | 3.4 ± .2 μmoles/g wet weight | able to enhance nucleotide pools (ATP) during ischemia and/or during the post-ischemic reperfusion period | 84 ± 5% | 88 ± 2% | 87 ± 3% | capable of restoring the contractile function
2 | Nc1ncnc2c1ncn2[C@@H]1O[C@H](CO)[C@@H](O)[C@H]1O [Adenosine, adenosine] | 1.7 ± 0.1 μmoles/g wet weight | 2.9 ± .08 μmoles/g wet weight | 2.7 ± .08 μmoles/g wet weight | 2.7 ± .06 μmoles/g wet weight | 3.9 ± 0.4 μmoles/g wet weight | able to enhance nucleotide pools (ATP) during ischemia and/or during the post-ischemic reperfusion period | 86 ± 3% | 96 ± 3% | 95 ± 3% | capable of restoring the contractile function
